Laboratory results: patent publication US11844776B2, “Composition for treatment and/or prevention of peripheral nerve disorder” (OSAKA CITY UNIVERSITY, priority 2016, dated 2023)

target: m-calpain (derived from porcine kidney) (Sus scrofa, UniProt P43367); assay: Measurement of inhibitory activity against m-calpain; format: biochemical; conditions: casein substrate, pH 7.4, 30° C. for 60 minutes; read-out: Enzyme inhibitory activity m-Calpain (IC50)
Sequence (P43367 whole entry): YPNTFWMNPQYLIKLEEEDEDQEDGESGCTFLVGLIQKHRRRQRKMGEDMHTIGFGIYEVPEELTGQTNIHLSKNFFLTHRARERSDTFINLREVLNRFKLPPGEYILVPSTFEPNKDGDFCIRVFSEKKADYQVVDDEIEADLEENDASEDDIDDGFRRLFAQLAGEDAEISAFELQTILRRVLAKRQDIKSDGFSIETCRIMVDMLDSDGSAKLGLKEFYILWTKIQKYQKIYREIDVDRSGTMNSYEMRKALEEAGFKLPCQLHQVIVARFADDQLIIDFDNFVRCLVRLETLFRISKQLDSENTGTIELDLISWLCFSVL
Sequence (P04574 whole entry, further chain): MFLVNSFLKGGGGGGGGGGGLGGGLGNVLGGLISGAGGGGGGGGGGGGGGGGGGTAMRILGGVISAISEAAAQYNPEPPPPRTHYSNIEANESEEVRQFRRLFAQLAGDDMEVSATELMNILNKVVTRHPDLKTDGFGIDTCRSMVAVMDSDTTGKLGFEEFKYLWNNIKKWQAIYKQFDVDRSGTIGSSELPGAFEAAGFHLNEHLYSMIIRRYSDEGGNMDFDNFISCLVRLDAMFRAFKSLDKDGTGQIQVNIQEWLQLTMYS
Procedure: More specifically, 200 μL of a reaction solution containing 0.5 mg/mL casein, 50 mM Tris-HCl buffer (pH 7.4), 20 mM dithiothreitol and 1.0 nmol μ-calpain (derived from human red blood cells, Cosmo Bio Co., Ltd.) or m-calpain (derived from porcine kidney, Cosmo Bio Co., Ltd.) was added to individual 2.5 μL portions of DMSO solution containing a varying concentration of a test sample in a 96-well plate. Then, 50 μL of 20 mM aqueous calcium chloride was added thereto, and reaction was performed at 30° C. for 60 minutes. 100 μL of the reaction solution was transferred to another 96-well plate, and purified water (50 μL) and 50% aqueous solution (100 μL) of Protein Assay Dye Reagent (available from Bio-Rad Laboratories, Inc.; catalogue No. 500-600) were added thereto. […] The absorbance of a reaction mixture prepared in the same manner as mentioned above, except that a DMSO solution containing no sample was used as a control value; and the absorbance of a reaction mixture prepared in the same manner as mentioned above, except that a 1 mM aqueous EDTA solution (50 μL) was used in place of 20 mM aqueous calcium chloride, was used as a blank value.

SMILES | IC50 [µM]
COCCOCCOCCOCCOC(=O)N[C@@H](CC(C)C)C(=O)N[C@@H](Cc1ccccc1)C(=O)C(=O)NC1CC1 [Compound 19, ((1S)-1-((((1S)-1-Benzyl-2,3-dioxo-3-(cyclopropylamino)propyl)amino)carbonyl)-3-methylbutyl)carbamic acid 11-methoxy-3,6,9-trioxaundecanyl ester] | 0.17
COCCOCCOCCOCCOCCOC(=O)N[C@@H](CC(C)C)C(=O)N[C@@H](Cc1ccccc1)C(=O)C(=O)NC1CC1 [Compound 20, ((1S)-1-((((1S)-1-Benzyl-2,3-dioxo-3-(cyclopropylamino)propyl)amino)carbonyl)-3-methylbutyl)carbamic acid 14-methoxy-3,6,9,12-tetraoxatetradecanyl ester] | 0.19

test system: not given; assay: not given; conditions: not given

SMILES | melting point [°C]
CCNC(=O)C(=O)[C@H](Cc1ccccc1)NC(=O)[C@H](CC(C)C)NC(=O)OCCOC [Compound 1, ((1S)-1-((((1S)-1-Benzyl-2,3-dioxo-3-(ethylamino)propyl)amino)carbonyl)-3-methylbutyl) carbamic acid 2-methoxyethyl ester] | 138 to 138.3
CCNC(=O)C(=O)[C@H](Cc1ccccc1)NC(=O)[C@H](CC(C)C)NC(=O)O[C@H]1CCOC1 [Compound 2, ((1S)-1-((((1S)-1-Benzyl-2,3-dioxo-3-(ethylamino)propyl)amino)carbonyl)-3-methylbutyl)carbamic acid (3S)-tetrahydrofuran-3-yl ester] | 158.9 to 160.7
CCNC(=O)C(=O)[C@H](Cc1ccccc1)NC(=O)[C@H](CC(C)C)NC(=O)OC1CCOCC1 [Compound 3, ((1S)-1-((((1S)-1-Benzyl-2,3-dioxo-3-(ethylamino)propyl)amino)carbonyl)-3-methylbutyl)carbamic acid tetrahydro-4H-pyran-4-yl ester] | 140 to 141.8
COCCOC(=O)N[C@@H](CC(C)C)C(=O)N[C@@H](Cc1ccccc1)C(=O)C(=O)NC1CC1 [Compound 4, ((1S)-1-((((1S)-1-Benzyl-2,3-dioxo-3-(cyclopropylamino)propyl)amino)carbonyl)-3-methylbutyl)carbamic acid 2-methoxyethyl ester] | 112.4 to 113.5
CC(C)C[C@H](NC(=O)O[C@H]1CCOC1)C(=O)N[C@@H](Cc1ccccc1)C(=O)C(=O)NC1CC1 [Compound 5, ((1S)-1-((((1S)-1-Benzyl-3-(cyclopropylamino)-2,3-dioxopropyl)amino)carbonyl)-3-methylbutyl)carbamic acid (3S)-tetrahydrofuran-3-yl ester] | 169.2 to 170.5
CC(C)C[C@H](NC(=O)OC1CCOCC1)C(=O)N[C@@H](Cc1ccccc1)C(=O)C(=O)NC1CC1 [Compound 6, ((1S)-1-((((1S)-1-Benzyl-3-cyclopropylamino-2,3-dioxopropyl)amino)carbonyl)-3-methylbutyl)carbamic acid tetrahydro-4H-pyran-4-yl ester] | 137 to 138.2
CCCNC(=O)C(=O)[C@H](Cc1ccccc1)NC(=O)[C@H](CC(C)C)NC(=O)OCCOC [Compound 7, ((1S)-1-((((1S)-1-Benzyl-2,3-dioxo-3-(propylamino)propyl)amino)carbonyl)-3-methylbutyl) carbamic acid 2-methoxyethyl ester] | 108.8 to 109.9
COCCOC(=O)N[C@@H](CC(C)C)C(=O)N[C@@H](Cc1ccccc1)C(=O)C(=O)NC1CCC1 [Compound 8, ((1S)-1-((((1S)-1-Benzyl-2,3-dioxo-3-(cyclobutylamino)propyl)amino)carbonyl)-3-methylbutyl) carbamic acid 2-methoxyethyl ester] | 114.2 to 115.3
CCCCNC(=O)C(=O)[C@H](Cc1ccccc1)NC(=O)[C@H](CC(C)C)NC(=O)OCCOC [Compound 9, ((1S)-1-((((1S)-1-Benzyl-3-butylamino-2,3-dioxopropyl)amino)carbonyl)-3-methylbutyl) carbamic acid 2-methoxyethyl ester] | 94 to 95.2
COCCOC(=O)N[C@@H](CC(C)C)C(=O)N[C@@H](Cc1ccccc1)C(=O)C(=O)NCC(F)(F)F [Compound 10, ((1S)-1-((((1S)-1-Benzyl-2,3-dioxo-3-(2,2,2-trifluoroethylamino)propyl)amino)carbonyl)-3-methylbutyl) carbamic acid 2-methoxyethyl ester] | 152.5 to 153.9
COCCOC(=O)N[C@@H](CC(C)C)C(=O)N[C@@H](Cc1ccccc1)C(=O)C(=O)NC1Cc2ccccc2C1 [Compound 11, ((1S)-1-((((1S)-1-Benzyl-2,3-dioxo-3-(2-indanylamino)propyl)amino)carbonyl)-3-methylbutyl)carbamic acid 2-methoxyethyl ester] | 141.9 to 143.5
COCCNC(=O)C(=O)[C@H](Cc1ccccc1)NC(=O)[C@H](CC(C)C)NC(=O)OCCOC [Compound 12, ((1S)-1-((((1S)-1-Benzyl-2,3-dioxo-3-(2-methoxyethylamino)propyl)amino)carbonyl)-3-methylbutyl) carbamic acid 2-methoxyethyl ester] | 127 to 127.9
CCNC(=O)C(=O)[C@H](CCc1ccccc1)NC(=O)[C@H](CC(C)C)NC(=O)OCCOC [Compound 13, ((1S)-1-((((1S)-2,3-Dioxo-3-ethylamino-1-(phenylethyl)propyl)amino)carbonyl)-3-methylbutyl)carbamic acid 2-methoxyethyl ester] | 119.1 to 120.4
CCNC(=O)C(=O)[C@H](CCc1ccccc1)NC(=O)[C@H](CC(C)C)NC(=O)O[C@H]1CCOC1 [Compound 14, ((1S)-1-((((1S)-2,3-Dioxo-3-ethylamino-1-(phenylethyl)propyl)amino)carbonyl)-3-methylbutyl)carbamic acid (3S)-tetrahydrofuran-3-yl ester] | 111.9 to 114.5
COCCOC(=O)N[C@@H](CC(C)C)C(=O)N[C@@H](CCc1ccccc1)C(=O)C(=O)NC1CC1 [Compound 15, ((1S)-1-((((1S)-2,3-Dioxo-3-cyclopropylamino-1-(phenylethyl)propyl)amino)carbonyl)-3-methylbutyl)carbamic acid 2-methoxyethyl ester] | 109.7 to 111.1
CC(C)C[C@H](NC(=O)O[C@H]1CCOC1)C(=O)N[C@@H](CCc1ccccc1)C(=O)C(=O)NC1CC1 [Compound 16] | 115.8 to 116.2
COCCOCCOCCOCCOC(=O)N[C@@H](CC(C)C)C(=O)N[C@@H](Cc1ccccc1)C(=O)C(=O)NC1CC1 [Compound 19, ((1S)-1-((((1S)-1-Benzyl-2,3-dioxo-3-(cyclopropylamino)propyl)amino)carbonyl)-3-methylbutyl)carbamic acid 11-methoxy-3,6,9-trioxaundecanyl ester] | 97.5 to 98.5
COCCOCCOCCOCCOCCOC(=O)N[C@@H](CC(C)C)C(=O)N[C@@H](Cc1ccccc1)C(=O)C(=O)NC1CC1 [Compound 20, ((1S)-1-((((1S)-1-Benzyl-2,3-dioxo-3-(cyclopropylamino)propyl)amino)carbonyl)-3-methylbutyl)carbamic acid 14-methoxy-3,6,9,12-tetraoxatetradecanyl ester] | 98.5 to 99.9
COCCOC(=O)N[C@@H](CC(C)C)C(=O)N[C@@H](CC(C)C)C(=O)C(=O)NCCOc1ccccc1 [Compound 21, ((1S)-1-((((1S)-2,3-Dioxo-1-(2-methylpropyl)-3-(2-phenoxyethyl)aminopropyl)amino)carbonyl)-3-methylbutyl) carbamic acid 2-methoxyethyl ester] | 99.7 to 100.5
COCCOCCOC(=O)N[C@@H](CC(C)C)C(=O)N[C@@H](CC(C)C)C(=O)C(=O)NCCOc1ccccc1 [Compound 22, ((1S)-1-((((1S)-2,3-Dioxo-1-(2-methylpropyl)-3-(2-phenoxyethyl)aminopropyl)amino)carbonyl)-3-methylbutyl) carbamic acid 5-methoxy-3-oxapentyl ester] | 53.3 to 54.1
